# According to patent US20220264883A1, “IMIDAZOTHIAZOLE COMPOUNDS AND METHODS FOR TREATING PLANT NEMATODE INFECTIONS” (The Governing Council of the University of Toronto, priority 2019, published 2022):
# Values joined by “and” are separate entries in the source; they are usually repeats but may differ in a detail not shown here. Identical values can stand only once. Like-named read-outs stand apart in the source and are kept apart here.
# Experiments:
# C. elegans [1] = assay: C. elegans dose-response experiments (wild type; embryo to adult and dauer stages); assay type: in vivo; conditions: for LC50: Caenorhabditis elegans
# Procedure: (§1) Forty microliters of an HB101 bacterial suspension in liquid NGM (see above) was added to each well of a 96-well flat-bottom culture plate, after which approximately 25 synchronized L1 worms, in 10 μl of M9 buffer (see ref. 59 for the recipe), were added to each well. The synchronized L1 worms were obtained from an embryo preparation performed the previous day (see ref. 59 for the protocol). For the L1 assays, 0.5 μl of chemical solution (or DMSO alone) was immediately added to the wells using a multichannel pipette, the final DMSO concentration is 1% (v/v). The worms were incubated for 3 days at 20° C. and the number of viable animals was counted. […] Although the counts were performed after 3 days of incubation in the chemical, it was noted that the L1s were dead within 24 hours of the addition of the chemicals. For the L2/L3 assays, the worms were incubated in the absence of chemical for 1 day at 20° C. until they reached the L2/L3 stage, at which point chemical was added as described above. The worms were then allowed to incubate for 2 days at 20° C. and the number of viable animals was counted as described for the L1 assay. For the L4 assays, the worms were incubated for 2 days at 20° C. before the addition of chemicals. The L4-stage worms were then incubated in chemical for an additional day before quantifying the number of viable animals. The adult assays were performed the same way as the L4 assays, however HT115 E. coli carrying the empty dsRNA expressing vector L4440 was used in place of HB101 and the worms were cultured at 25° C. as opposed to 20° C. for the entirety of the experiment. The HT115 suspension was made by concentrating a bacterial culture, with an OD600 of ˜ 0.8, five-fold with liquid NGM containing 1 mM IPTG and 100 μg/ml carbenicillin. The HT115 cells were induced with 1 mM IPTG for one hour before concentrating with NGM.
# For the dose-response experiments with embryos, eggs obtained from an embryo preparation were immediately aliquoted into 96-well plate wells. Approximately 25 embryos in 50 μl of M9 buffer were added to each well, and 0.5 μl volumes of the chemicals were added via multichannel, in the same way as for the L1 dose-response assays described above. The plates were incubated at 20° C. for 1 day, at which point the number of hatched eggs was counted.
# For the dauer dose-response assays, the CB1370 strain carrying the temperature sensitive daf-2(e1370) allele was used. When grown at the non-permissive temperature of 25° C. these mutants will enter dauer constitutively. The assay was performed similarly to the […] described above, however the L1 worms were allowed to grow for 2 days at 25° C. until they became dauer larvae. At this point chemical was added and the dauers were incubated for 2 days at 25° C. before quantitation of viability. After 2 days, all of the dauer larvae, including the DMSO controls, were relatively motionless and appeared as rigid rods. To activate the worms, 1 μl of 1 N sodium hydroxide was added to each well and the plates were agitated vigorously before counting. This was done one well at a time.
# At least three biological replicates were performed for each dose-response assay. For each biological replicate, two technical replicates were performed and the numbers of viable animals for each technical replicate were combined (i.e. ˜50 worms assayed per concentration). The number of viable worms at each concentration was divided by the corresponding DMSO control value to give the “relative viability” for each concentration. The “relative viability” values were then averaged across the biological replicates. LC50 values were calculated using Graphpad Prism. The concentration values were log-transformed and a four-parameter logistic curve was fitted to the dose-response data by non-linear regression, from which the LC50 values were extracted.
# [2] = Danio rerio (zebrafish) embryo dose-response experiments; assay type: in vivo; conditions: AB/Tubingen, Danio rerio (zebrafish), in vivo, other: immersion in chemical-treated water; non-target system; embryos, 24 hours exposure; read-out: D. rerio LC50
# Procedure: Zebrafish chemical assays were performed similarly to previously described methods^63. In brief, fish were maintained at 28.5° C. on a 14/10 hour light/dark cycle and staged according to hours post fertilization (hpf). For each biological replicate, eggs from LT fish (AB/Tubingen strain) were collected at 4 hpf. At 24 hpf, embryos were arrayed in 24 well plates, 10 per well. In 2 ml tubes, 4 μl of chemical dissolved in DMSO at the appropriate concentration was added to 800 μl of water and then vortexed for 30 s intensively. Water was removed from the embryos in the wells and 800 μl of chemical-treated water was transferred to each of the wells. The DMSO control wells contained DMSO alone. The final DMSO concentration in every well was 0.5% (v/v). […] The embryos were incubated in the chemicals for 24 hours and scored for death and toxicity at 48 hpf. Toxicity was defined as the embryos showing developmental defects such as a curved body, reduced body size, skin whiteness, and heart edema. “Relative viability” was calculated by dividing the number of viable and properly developed embryos in the treatment wells by the average number of viable and properly developed embryos across six DMSO control wells. Three biological replicates were performed for each dose-response experiment, and the relative viability values were averaged across the three replicates.
# C. oncophora = assay: whole plant or invertebrate; assay type: in vivo; conditions: Cooperia oncophora, 48 h; eggs of ivermectin-resistant strain, 2 days, egg hatch
# Text: Fresh cattle faeces containing eggs of an ivermectin-resistant strain of C. oncophora were kindly supplied by Dr. Doug Colwell and Dawn Gray (Lethbridge Research Station, Agriculture and Agri-Food Canada). Established methods were used to carry out the experimental cattle infections^60, and these methods were approved by the Lethbridge AAFC Animal Care committee and conducted under animal use license ACC1407. Cattle faeces containing C. oncophora eggs were stored anaerobically at room temperature for a maximum of 6 days before use. Eggs were isolated from faeces using a standard saturated salt flotation method^61 immediately before the egg hatch assay. 80 μl of distilled and deionized water was added to each well of a 96-well culture plate, and then 1 μl of chemical at the appropriate concentration in DMSO was added to each well using a multichannel pipette. Approximately 50 eggs were added per well in 20 μl of water for a final volume of 100 μl in each well, the final DMSO concentration was 1% (v/v). The eggs were incubated in the chemicals for 2 days at room temperature, after which hatching was stopped by the addition of 1 μl iodine tincture to each well. […] “Relative viability” values were calculated by dividing the fraction of eggs that hatched at each concentration by the fraction of eggs that hatched in the corresponding DMSO control wells. Two biological replicates were performed for each dose-response experiment, and the relative viability values were averaged across the biological replicates. The average hatch rate for the DMSO control wells was greater than 93% for both biological replicates. LC50 values were calculated in the same manner as for the C. elegans dose-response assays
# C. elegans [3] = assay: C. elegans minimum lethal concentration dose-response; assay type: in vivo, Caenorhabditis elegans; conditions: Caenorhabditis elegans, C. elegans viability
# Procedure: as §1
# Compounds Ia to Im, dose-response assays were performed with C. elegans. 8 of the compounds killed C. elegans with minimum lethal concentrations less than or equal to 100 μM (Table 6). Compounds Ia, Ic, and Ij were the most potently lethal nematicides in this assay, having minimum lethal concentrations of 6.25 μM and below. The positive control nematicide tioxazafen killed nematodes at 3.13 μM and above.
# [4] = 72 h, L1 worms, 3 days at 20° C., read-out: C. elegans LC50
# [5] = wild-type, resistance none, read-out: LC50 in strain N2
Compound,LC50 (C. elegans [1]; [4]),LC50 at 24 h [2],LC50 (C. oncophora),minimal effective concentration (C. elegans [3]),LC50 (C. elegans [1]; [5]),killing of each developmental stage of C. elegans from embryo to adult (C. elegans [1]; FIG. 1B),"killing of the non-reproductive dauer stage of C. elegans (C. elegans [1]; daf-2(e1370) dauers, FIG. 1B)"
Cc1csc2nc(-c3ccccc3)cn12 [Compound Ie],> 100 µM,> 100 µM,0.9 µM,> 100 µM and > 21.4 µg/mL,–,–,–
Clc1ccc(-c2cn3ccsc3n2)cc1 [Ia],6.9 µM,> 100 µM,3.7 µM,1.5 µg/mL,6.9 µM,micromolar potency,can also kill the non-reproductive dauer stage
Fc1ccc(-c2cn3ccsc3n2)cc1 [Ib],29.7 µM,> 100 µM,5.4 µM,25 µM and 5.5 µg/mL,29.7 µM,–,–
